These results are taken from PubChem BioAssay (NCI).

Values joined by “and” are separate entries in the source; they are usually repeats but may differ in a detail not shown here. Equal values may be shown once.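 1) Cells in 96-well plates. 2) Compound, 48 h, 5 concentrations. 3) Linear interpolation between surrounding doses. 4) Unreached endpoint = highest concentration. GI50 is the concentration that inhibits growth by half. TGI is the concentration that stops growth completely.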

What all share (experiment): inhibition of tumour cell growth, NCI panel, 48 h
The test system of assay [1] is SF-295 CNS.
In assay [2] the test system is UO-31 renal.
The test system of assay [3] is SNB-75 CNS.
For assay [4], the system named is OVCAR-3 ovarian.
The test system of assay [5] is SK-MEL-2 melanoma.
Assay [6] concerns U251 CNS.
Assay [7] relates to MCF7 breast.
Assay [8] has as its system SR leukemia.

As to `COc1ccc(OC)c(-c2cc(=O)c3c(OC)c(OC)c(OC)c(OC)c3o2)c1`, the TGI is 48.4 µM in assay [1]; above 100 µM in assay [2]; above 100 µM in assay [3]; 75.3 µM in assay [4]; 49.3 µM in assay [5]; above 100 µM in assay [6]. The TGI is 55.5 µM in assay [7] and above 100 µM in assay [8].
Regarding `O=C(NO)c1ccc(Cn2c(=O)n(-c3ccccc3F)c(=O)c3ccccc32)cc1`, the GI50 in assay [1] was 1.66 µM; in assay [2], 1.83 µM; in assay [3] it was 1.45 µM; in assay [4], 2.15 µM; in assay [5], 1.29 µM; in assay [6] it was 1.55 µM. Also, the results for the GI50 in assay [7] and in assay [8] were 2.21 µM and 1.56 µM, respectively. For the same compound, the TGI is 3.29 µM in assay [1]; 4.75 µM in assay [2]; 4.78 µM in assay [3]; 6.41 µM in assay [4]; 3.43 µM in assay [5]; 3.16 µM in assay [6]. Besides, the TGI in assay [7] and in assay [8] was above 100 µM throughout.
Regarding `CC[C@@]1(O)C(=O)OCc2c1cc1n(c2=O)Cc2c-1nc1cc3c(cc1c2C)OCO3`, the GI50 in assay [1] was below 0.0001 µM; in assay [2], below 0.0001 µM; in assay [3] it was 0.00123 µM; in assay [4], 0.0758 µM and 0.0117 µM; in assay [6], below 0.0001 µM; in assay [7], below 0.0001 µM. The GI50 in assay [8] was below 0.0001 µM. Also, the TGI in assay [2] was 0.0415 µM; in assay [3] it was 0.947 µM; in assay [4], above 100 µM; in assay [5], 0.0271 µM; in assay [7], 0.299 µM; in assay [8] it was 0.000207 µM.
On to `CCc1cc2c(cc1N1CCC(N3CCOCC3)CC1)C(C)(C)c1[nH]c3cc(C#N)ccc3c1C2=O`, for which the GI50 in assay [1] is 2.56 µM and 2.95 µM and 1.61 µM; in assay [2], 1.23 µM and 1.13 µM and 1 µM; in assay [3], 1.03 µM and 1.25 µM and 1.38 µM; in assay [4] it was 1.68 µM and 1.65 µM; in assay [5], 2.62 µM and 2.86 µM and 5.46 µM; in assay [6] it was 1.33 µM and 1.43 µM and 1.4 µM. Further, the GI50 was 1.66 µM and 1.64 µM and 1.34 µM in assay [7]; < 0.0149 µM and 0.0165 µM and 0.0525 µM in assay [8]. The TGI in assay [1] was 9.06 µM and 13.2 µM and 3.68 µM; in assay [2] it was 3.12 µM and 2.75 µM and 2.72 µM; in assay [3] it was 2.63 µM and 2.73 µM and 2.9 µM; in assay [4], 4 µM and 3.42 µM and 3.91 µM; in assay [5], 9.13 µM and 9.77 µM and > 10 µM; in assay [6], 2.76 µM and 3.28 µM and 2.96 µM. The TGI in assay [7] is > 23.8 µM and 15.6 µM and > 10 µM.
In the case of `CCOC(=O)C(C)(C)C(O)C(C)C` (stereo not given), the TGI in assay [1], in assay [2], in assay [3], in assay [4], in assay [5] and in assay [6] was above 100 µM each time. The TGI in assay [7] and in assay [8] was above 100 µM each time.
For `CCCCCCCCCCCCCCCCOP(=O)(O)OP(=O)(O)OCC1OC(n2ccc(N)nc2=O)C(O)C1O` (stereo not given), the GI50 in assay [1] is > 100 µM and 46 µM; in assay [2] it was > 100 µM and 21.8 µM; in assay [3], above 100 µM; in assay [7], > 100 µM and 19.3 µM. Moreover, the TGI in assay [1], in assay [2], in assay [3], in assay [4], in assay [5] and in assay [6] was above 100 µM each time. Further, the TGI in assay [7] and in assay [8] was above 100 µM in each case.
In the case of `CC/C(=C(/c1ccc(O)cc1)c1ccc(OCCN2CCCCC2)cc1)c1ccc(OC)cc1`, the GI50 was 1.79 µM in assay [1]; 1.13 µM in assay [2]; 10.4 µM in assay [3]; 1.6 µM in assay [4]; 2.04 µM in assay [5]; 1.85 µM in assay [6]. Besides, the GI50 in assay [7] was 0.0707 µM; in assay [8], 0.215 µM. The TGI is 3.62 µM in assay [1]; 2.49 µM in assay [2]; 23.3 µM in assay [3]; 4.23 µM in assay [4]; 4.83 µM in assay [5]; 4.22 µM in assay [6]. Moreover, the TGI in assay [7] was 2.08 µM; in assay [8], 0.649 µM.
Take `O=C(CCC(C(=O)c1ccccc1)c1ccccc1)c1ccccc1` (stereo not given): the GI50 is 6.83 µM in assay [1]; 7.28 µM in assay [2]; 27.2 µM in assay [3]; 5.78 µM in assay [4]; 7.07 µM in assay [5]; 13.4 µM in assay [6]. Besides, the GI50 in assay [7] is 15.1 µM; in assay [8], 4.46 µM. Besides, the TGI in assay [1] is above 100 µM; in assay [2] it was above 100 µM; in assay [3], above 100 µM; in assay [4], above 100 µM; in assay [5], 46.7 µM; in assay [6] it was above 100 µM. For the same compound, the TGI in assay [7] and in assay [8] was above 100 µM throughout.
For `C[C@H]1[C@H]2[C@H]3CC[C@@H]4[C@@]5(C)C/C(=C/c6cccnc6)C(=O)C(C)(C)[C@@H]5CC[C@@]4(C)[C@]3(C)CC[C@]23CO[C@]1(C)[C@@H](C(=O)/C=C\c1cccnc1)C3`, the GI50 is 1.38 µM in assay [1]; 0.675 µM in assay [2]; 0.99 µM in assay [3]; 0.886 µM in assay [4]; 1.21 µM in assay [5]; 0.964 µM in assay [6]. Besides, the GI50 in assay [7] is 0.842 µM; in assay [8], 0.371 µM. Also, the TGI in assay [1] was 6.21 µM; in assay [2] it was 1.37 µM; in assay [3] it was 3.69 µM; in assay [4], 1.91 µM; in assay [5], 2.83 µM; in assay [6] it was 2.07 µM. This compound showed a TGI in assay [7] of 6.25 µM.
For the compound `CCOC(=O)/C(=C(/C)NCC(C)C)c1cc(O)c(O)c2c(C)cc(=O)[nH]c12`, the GI50 in assay [1] was 4.46 µM; in assay [2], 46.1 µM; in assay [3] it was 3.85 µM; in assay [4], 3.16 µM; in assay [5], 5.92 µM; in assay [6], 8.68 µM. Also, the GI50 in assay [7] was 4.38 µM; in assay [8], 4.02 µM. Besides, the TGI was 48.1 µM in assay [1]; above 100 µM in assay [2]; 29.8 µM in assay [3]; above 100 µM in assay [4]; above 100 µM in assay [5]; 50.9 µM in assay [6]. Moreover, the TGI in assay [7] and in assay [8] was above 100 µM throughout.
